The results in this text go back to BindingDB's records for patent US11759530 (City of Hope, 2023).

Holding throughout (assay): No assay
Test [1] addresses Mitogen-activated protein kinase 11 (Homo sapiens, UniProt Q15759).
The target of test [2] is Mitogen-activated protein kinase 14 (Homo sapiens, UniProt Q16539).
Another test has as its target PIM2 (Homo sapiens, UniProt Q9P1W9).

Sequence of Mitogen-activated protein kinase 14 (Q16539 whole entry): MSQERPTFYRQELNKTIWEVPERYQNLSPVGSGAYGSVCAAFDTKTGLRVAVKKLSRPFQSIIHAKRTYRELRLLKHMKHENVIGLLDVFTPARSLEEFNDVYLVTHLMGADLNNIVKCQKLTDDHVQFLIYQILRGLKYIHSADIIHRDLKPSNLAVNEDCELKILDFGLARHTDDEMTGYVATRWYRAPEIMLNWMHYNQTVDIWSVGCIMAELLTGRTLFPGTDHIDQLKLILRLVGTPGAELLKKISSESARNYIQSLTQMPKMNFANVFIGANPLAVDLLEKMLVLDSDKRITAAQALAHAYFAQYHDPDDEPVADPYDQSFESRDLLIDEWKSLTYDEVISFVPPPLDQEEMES
Sequence of Mitogen-activated protein kinase 11 (Q15759 whole entry): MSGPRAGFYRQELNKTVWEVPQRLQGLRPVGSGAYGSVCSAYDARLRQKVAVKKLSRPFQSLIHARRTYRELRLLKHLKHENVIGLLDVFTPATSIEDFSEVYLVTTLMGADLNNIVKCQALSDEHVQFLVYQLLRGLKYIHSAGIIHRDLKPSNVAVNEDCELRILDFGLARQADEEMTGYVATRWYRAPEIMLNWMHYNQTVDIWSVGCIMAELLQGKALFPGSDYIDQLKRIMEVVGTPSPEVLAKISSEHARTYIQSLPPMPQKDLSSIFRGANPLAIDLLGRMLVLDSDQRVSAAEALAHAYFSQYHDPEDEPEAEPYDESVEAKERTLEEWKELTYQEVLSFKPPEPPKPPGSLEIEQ
Sequence of PIM2 (Q9P1W9 whole entry): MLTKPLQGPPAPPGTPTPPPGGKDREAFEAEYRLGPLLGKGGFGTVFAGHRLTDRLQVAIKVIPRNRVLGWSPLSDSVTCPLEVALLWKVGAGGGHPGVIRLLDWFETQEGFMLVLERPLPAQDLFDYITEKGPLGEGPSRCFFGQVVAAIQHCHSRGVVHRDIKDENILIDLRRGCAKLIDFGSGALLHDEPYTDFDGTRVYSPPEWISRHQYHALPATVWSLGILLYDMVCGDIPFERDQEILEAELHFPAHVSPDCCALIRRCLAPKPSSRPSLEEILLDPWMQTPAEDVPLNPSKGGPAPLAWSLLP

On to `O=S(=O)(c1c(O)c(Cl)cc(Cl)c1Cl)c1c(O)c(Cl)cc(Cl)c1Cl` [HL-7], for which the IC50 in test [1] was 0.55 µM; in test [2], 0.13 µM. `NC(=O)c1ccc(-c2nc(-c3ccc4c(c3)OCCO4)c(-c3ccccn3)[nH]2)cc1` [US11759530, Compound Table1.3]: the IC50 in test [2] was found to be 12000 µM. Turning to `O=c1c(O)c(-c2ccc(O)c(O)c2)oc2cc(O)c(O)c(O)c12` [US11759530, Compound Table1.8], at PIM2, the IC50 stood at 3.45 µM.
